Like-named read-outs stand apart in the source and are kept apart here.
Tests used:
Assay in all cases: HPLC-MS/MS quantitation of accumulated cofactor, steady state
Format in all cases: biochemical
Details in all cases: co-substrate ATP
mouse MAT2A [1] = target: T1, mouse MAT2A (Mus musculus, UniProt Q3THS6, Q113N/I117A)
T1 construct: recombinant, produced in vitro from bacterial cells; monogenic multimer without MAT2B
Text: (§1) HPLC-MS/MS quantitation of accumulated cofactor, steady state on mouse MAT2A

mouse MAT2A [2] = target: T2, mouse MAT2A (Mus musculus, UniProt Q3THS6, I117A)
T2 construct: recombinant, produced in vitro from bacterial cells; monogenic multimer without MAT2B
T2 sequence (Q3THS6 whole entry I117A): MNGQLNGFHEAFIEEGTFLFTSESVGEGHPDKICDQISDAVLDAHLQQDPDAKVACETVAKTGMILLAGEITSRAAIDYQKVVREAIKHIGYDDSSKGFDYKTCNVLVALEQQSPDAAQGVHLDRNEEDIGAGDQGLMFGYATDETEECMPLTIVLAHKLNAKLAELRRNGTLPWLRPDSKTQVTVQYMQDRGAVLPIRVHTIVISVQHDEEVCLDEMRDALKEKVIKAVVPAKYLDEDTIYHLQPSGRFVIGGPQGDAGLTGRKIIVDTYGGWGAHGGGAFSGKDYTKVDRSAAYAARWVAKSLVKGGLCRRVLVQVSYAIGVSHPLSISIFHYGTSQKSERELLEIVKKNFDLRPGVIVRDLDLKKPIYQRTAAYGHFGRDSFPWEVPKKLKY
Text: as §1

mouse MAT2A [3] = target: T3, mouse MAT2A (Mus musculus, UniProt Q3THS6, S114A/I117A)
T3 construct: recombinant, produced in vitro from bacterial cells; monogenic multimer without MAT2B
T3 sequence (Q3THS6 whole entry S114A/I117A): as the sequence (Q3THS6 whole entry I117A) above, with S114A counted along it
Text: as §1

mouse MAT2A [4] = target: T4, mouse MAT2A (Mus musculus, UniProt Q3THS6)
T4 construct: recombinant, produced in vitro from bacterial cells; monogenic multimer without MAT2B
T4 sequence (Q3THS6 whole entry): as the sequence (Q3THS6 whole entry I117A) above, with A117I counted along it
Text: as §1

T1 sequence (Q3THS6 whole entry Q113N/I117A): as the sequence (Q3THS6 whole entry I117A) above, with Q113N counted along it

Structure (SMILES)	Km (mouse MAT2A [1]; read-out: Km /)	Km (mouse MAT2A [2]; read-out: Km /)	Km (mouse MAT2A [3]; read-out: Km /)	Km (mouse MAT2A [4]; read-out: Km /)	Km (mouse MAT2A [1]; read-out: Km / mM)	Km (mouse MAT2A [2]; read-out: Km / mM)	Km (mouse MAT2A [3]; read-out: Km / mM)	Km (mouse MAT2A [4]; read-out: Km / mM)
CSCC[C@H](N)C(=O)O [Met, L-methionine]	1.4 ± 0.56 mM	0.645 ± 0.023 mM	1.4 ± 0.41 mM	0.02 ± 0.003 mM	–	–	–	–
[N-]=[N+]=NCCCC#CCSCC[C@H](N)C(=O)O [N3-Met, S-(6-azidohex-2-yn-1-yl)-L-homocysteine]	–	–	–	–	1.44 ± 0.27 mM	0.92 ± 0.1 mM	1.52 ± 0.043 mM	1.03 ± 0.23 mM
